Measurements reported in patent publication US7163589B2 (priority 2001, dated 2007).

Tested on: Mouse immunoglobulin (IgG)

## COC(F)(F)C(F)(F)C(F)(F)C(F)(F)F [HFE-7100, methyl nonafluorobutyl ether]
  Effect on protein conformation (denaturation): changes the conformation of the proteins
